Results published in patent publication US6177438A, “Morphinan derivatives and pharmaceutical use thereof” (priority 1993, dated 2001).
pEC50, pIC50: −log10 of the molar value. Where a name gives a salt, the structure may show the parent alone.

Columns and labels:
[1] = tested on: acetic acid-induced writhing in ddy mice; experiment: animal or person; type: in vivo, 5 week old ddy mice; settings: Mus musculus, sc, s.c. 15 minutes before acetic acid, read-out: ED50
Procedure: 5 week old ddy mice were used in this test. After intraperitoneal administration of 0.1 ml of 0.6% aqueous acetic acid per 10 g of body weight, the number of writhing reactions that occurred in 10 minutes starting 10 minutes after administration was evaluated for the indicator. The test drug was administered subcutaneously into the backs of the animals 15 minutes before administration of acetic acid.

[2] = tested on: nerve cells in the region of the hippocampus CA1; experiment: Delayed neuronal death protective action (gerbil transient ischemia model, hippocampus CA1 nerve cell count); type: in vivo, gerbils; settings: s.c.; for No. of Residual Nerve Cells: 1 week after ligation; for Suppression of defluxion of brain nerve cells caused by ischemia / cerebro-neuroprotective activity (in words): gerbils
Procedure: Those compounds that provide protection from and suppress delayed neuronal death described in Example 238 are considered to be promising as preventive and therapeutic agents for ischemic brain disorders, brain nerve cell disorders and dementia, which are problems that the present invention is attempting to solve. The pharmacological activity of the compounds of the present invention was evaluated in the manner below using gerbils for the animal model.
A midline incision was made in gerbils having body weights of 50-70 g under ether anesthesia. Blood flow through the carotid arteries on both sides was interrupted to create an ischemic state by ligating the vessels for 5 minutes. The test compound was administered subcutaneously either 30 minutes or 1 hour prior to ligation ischemia, and the rectal temperature of the animals was controlled to 37±2° C. using a heating pad or heater starting 5 minutes before to 30 minutes after ligation ischemia. 1 week after ligation, 4% neutral buffered formalin was perfused from the heart throughout the body followed by extraction of the brain. After post-fixing the extracted brain in the same solution, the tissue was prepared into sections after embedding in paraffin. The sections were stained with hematoxylin and eosin stain, and the number of nerve cells in the region of the hippocampus CA1 over a width of 1 mm to the left and right was counted. The total number of nerve cells on the right and left sides was then used for evaluation.

[3] = tested on: cultured nerve cells (cerebral cortex); settings: 10 mM glutamic acid, 24 hours
[4] = tested on: cultured nerve cells (cerebral cortex); experiment: cells; settings: Rattus norvegicus, Cerebral cortex neuron, 24 h, read-out: ED50 (protection against glutamic acid toxicity)
[5] = tested on: extracted mouse vas deferens preparation; experiment: Opioid activity test using an extracted mouse vas deferens preparation (suppression of electrically induced contractions); design: species or system male ddy mouse; settings: electrical stimulus 0.1 Hz, 37° C.
Outline: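 Male ddY mouse vas deferens in Krebs-Henseleit at 37° C, 5% CO2/95% O2, field-stimulated at 0.1 Hz, 5.0 ms; isometric contractions recorded. After adding naloxone, NTI or norBNI, test compound was added cumulatively after ~20 min; Ke derived from the difference in agonist efficacies.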

[6] = molecular target: T1, δ receptor (Mus musculus, UniProt P32300); design: species or system male ddy mouse; settings: mouse vas deferens, δ, NTI added
T1 construct: The vas deferens extracted from the animal was suspended in a Magnus tube; from tissue; host or cells: mouse (male ddy) vas deferens
T1 sequence (P32300 whole entry): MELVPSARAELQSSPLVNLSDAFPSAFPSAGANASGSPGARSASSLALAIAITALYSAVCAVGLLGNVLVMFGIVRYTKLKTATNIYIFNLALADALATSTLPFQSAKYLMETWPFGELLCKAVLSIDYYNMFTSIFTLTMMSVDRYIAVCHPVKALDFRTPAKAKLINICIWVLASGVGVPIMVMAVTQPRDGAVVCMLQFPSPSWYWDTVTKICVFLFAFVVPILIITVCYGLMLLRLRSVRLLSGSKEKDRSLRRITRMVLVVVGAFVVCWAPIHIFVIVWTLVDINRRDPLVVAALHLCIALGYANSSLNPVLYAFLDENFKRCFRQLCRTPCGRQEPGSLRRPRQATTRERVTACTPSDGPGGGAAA

[7] = molecular target: T2, κ receptor (Mus musculus, UniProt P33534); experiment: Opioid activity test using an extracted mouse vas deferens preparation, Ke with norBNI; design: species or system male ddy mouse; settings: for receptor selectivity of agonist (κ): in words; for Ke, norBNI: κ, norBNI added
T2 construct: from tissue; host or cells: mouse (male ddy) vas deferens
T2 sequence (P33534 whole entry): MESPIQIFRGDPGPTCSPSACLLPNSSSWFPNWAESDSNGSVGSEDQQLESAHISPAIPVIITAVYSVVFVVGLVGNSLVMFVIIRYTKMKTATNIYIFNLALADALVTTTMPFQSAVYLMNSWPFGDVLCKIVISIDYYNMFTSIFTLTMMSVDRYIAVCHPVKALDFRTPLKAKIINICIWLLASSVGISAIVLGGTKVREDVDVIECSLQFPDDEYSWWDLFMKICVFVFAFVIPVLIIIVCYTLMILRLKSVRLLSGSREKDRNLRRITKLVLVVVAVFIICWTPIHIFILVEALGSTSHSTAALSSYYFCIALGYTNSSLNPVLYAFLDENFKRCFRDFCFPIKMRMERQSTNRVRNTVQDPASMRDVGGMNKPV

[8] = Diuretic action (urine output for 5 hours after physiological saline loading in rats); type: in vivo, male Wistar rats; settings: Rattus norvegicus, sc, 5 hours after saline 20 ml/kg p.o.; for ED (200% urine output): dose giving urine output of 200 (non-dosed group = 100); for ED (500% urine output): dose giving urine output of 500 (non-dosed group = 100)
Outline: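 Doses reported as ED200/ED500, i.e. those raising 5 h urine output to 200 or 500 versus undosed rats set at 100. Subcutaneous dosing preceded an oral 20 ml/kg saline load by 30 min; male Wistar rats, 7-8 weeks, deprived of water 1 h beforehand.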

[9] = tested on: guinea pig respiratory tract; experiment: Antitussive action using the guinea pig respiratory tract stimulation method; type: in vivo, male Hartley guinea pigs; settings: for ED50: Cavia porcellus, sc; for No. of Animals in which Coughing was Suppressed/No. of Animals Tested: s.c.
Procedure: Evaluation of Antitussive Action Using the Guinea Pig Respiratory Tract Stimulation Method
Male Hartley guinea pigs having body weights of 330-380 g were used in this test in groups of 5 animals each. The animals were immobilized in the supine position under mild anesthesia by intraperitoneal administration of 15 mg/kg of sodium pentobarbital. An incision was made in the necks of the animals to expose the respiratory tract. A small hole was opened in the exposed respiratory tract, and stimulating hairs were inserted to a depth of roughly 3 cm and at an angle of 30 degrees to the respiratory tract through the opened hole to provide a stimulus to the inner wall of the respiratory tract. The animals were then examined for the presence of coughing. […] The test drug was administered subcutaneously, and stimuli were provided two times each 15, 30, 60 and 120 minutes after administration.

[10] = molecular target: T3, μ receptor (Mus musculus, UniProt P42866); experiment: Opioid activity test using an extracted mouse vas deferens preparation, Ke with naloxone; design: species or system male ddy mouse; settings: naloxone added
T3 construct: naloxone as mu antagonist (printed 'agonist')
T3 sequence (P42866 whole entry): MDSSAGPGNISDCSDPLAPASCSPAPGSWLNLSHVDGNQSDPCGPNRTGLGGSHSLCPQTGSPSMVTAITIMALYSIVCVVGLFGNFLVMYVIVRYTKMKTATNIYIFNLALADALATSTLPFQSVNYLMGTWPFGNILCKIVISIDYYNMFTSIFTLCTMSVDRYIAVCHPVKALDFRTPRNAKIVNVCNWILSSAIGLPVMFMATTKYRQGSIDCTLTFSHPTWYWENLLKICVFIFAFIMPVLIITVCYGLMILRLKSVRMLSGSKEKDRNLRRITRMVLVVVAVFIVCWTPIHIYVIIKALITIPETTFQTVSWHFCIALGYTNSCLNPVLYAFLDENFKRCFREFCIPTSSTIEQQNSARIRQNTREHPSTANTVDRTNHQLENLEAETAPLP

[11] = 0.03 mg/kg, 30 minutes before ischemia
[12] = 0.3 mg/kg, 30 minutes before ischemia
[13] = 3 mg/kg, 30 minutes before ischemia

Compound | ED50 [1] | No. of Residual Nerve Cells [2, 11] | No. of Residual Nerve Cells [2, 12] | No. of Residual Nerve Cells [2, 13] | Suppression of defluxion of brain nerve cells caused by ischemia / cerebro-neuroprotective activity (in words) [2] | Protective action against cytotoxicity caused by glutamic acid (in words) [3] | pEC50 [4] | pIC50 [5] | Ke, NTI [6] | receptor selectivity of agonist (κ) [7] | Ke, norBNI [7] | ED (200% urine output) [8] | ED (500% urine output) [8] | ED50 [9] | No. of Animals in which Coughing was Suppressed/No. of Animals Tested ([9]; 1 μg/kg) | No. of Animals in which Coughing was Suppressed/No. of Animals Tested ([9]; 3 μg/kg) | No. of Animals in which Coughing was Suppressed/No. of Animals Tested ([9]; 30 μg/kg) | Ke, Naloxone [10] | also measured
CC(C)CN(C(=O)Cc1ccc(Cl)c(Cl)c1)[C@H]1CC[C@@]2(O)[C@H]3Cc4ccc(O)c5c4[C@@]2(CCN3CC2CC2)[C@H]1O5 [Compound 51, 17-cyclopropylmethyl-4,5α-epoxy-3,14β-dihydroxy-6α-(N-isobutyl-3,4-dichlorophenylacetoamido)morphinan.cndot.hydrochloride] | 0.19 mg/kg | 17.8 ± 6.9 | 46.4 ± 15.1 | 203.8 ± 40.1 | significantly suppress defluxion of brain nerve cells caused by ischemia | clearly demonstrated action that protects nerve cells from cytotoxicity caused by glutamic acid | 7.52 |  |  |  |  |  |  |  |  |  |  |  | 
CN(C(=O)/C=C/c1cccc(C(F)(F)F)c1)[C@@H]1CC[C@@]2(O)[C@H]3Cc4ccc(O)c5c4[C@@]2(CCN3CC2CC2)[C@H]1O5 [Compound 60, 17-cyclopropylmethyl-3,14β-dihydroxy-4,5α-epoxy-6β-(N-methyl-3-trifluoromethylcinnamamido)morphinan.cndot.tartrate] | 0.0046 mg/kg |  |  |  | significantly suppress defluxion of brain nerve cells caused by ischemia | clearly demonstrated action that protects nerve cells from cytotoxicity caused by glutamic acid | 5.88 | 9.33 | 291 nM | selective agonists for κ receptors | 3.20 nM | 0.0143 mg/kg | 1.13 mg/kg | 0.0026 mg/kg | 1/5 | 3/5 | 5/5 |  | No. of Residual Nerve Cells ([2]; 0.03 mg/kg, 1 hour before ischemia): 52.1 ± 14.8; No. of Residual Nerve Cells ([2]; 0.3 mg/kg, 1 hour before ischemia): 148.3 ± 28.5; No. of Residual Nerve Cells ([2]; 3 mg/kg, 1 hour before ischemia): 284.5 ± 7.1
CN(C(=O)/C=C/c1cccc([N+](=O)[O-])c1)[C@@H]1CC[C@@]2(O)[C@H]3Cc4ccc(O)c5c4[C@@]2(CCN3CC2CC2)[C@H]1O5 [Compound 104, 17-cyclopropylmethyl-3,14β-dihydroxy-4,5α-epoxy-6β-(N-methyl-3-nitrocinnamamido)morphinan.cndot.tartrate] | 0.017 mg/kg | 12.0 ± 3.0 | 14.8 ± 1.2 | 106.2 ± 65.6 | significantly suppress defluxion of brain nerve cells caused by ischemia | clearly demonstrated action that protects nerve cells from cytotoxicity caused by glutamic acid | 5.26 | 9.64 | 89 nM | selective agonists for κ receptors | 1.40 nM |  |  |  |  |  |  | 185 nM | 
Cc1cccc(/C=C/C(=O)N(C)[C@@H]2CC[C@@]3(O)[C@H]4Cc5ccc(O)c6c5[C@@]3(CCN4CC3CC3)[C@H]2O6)c1 [Compound 69, 17-cyclopropylmethyl-3,14β-dihydroxy-4,5α-epoxy-6β-(N-methyl-3-methylcinnamamido)morphinan.cndot.hydrochloride] | 0.0049 mg/kg | 12.4 ± 3.0 | 43.3 ± 19.1 | 178.3 ± 30.4 | significantly suppress defluxion of brain nerve cells caused by ischemia |  |  | 9.49 | 64.5 nM | selective agonists for κ receptors | 1.95 nM |  |  | 0.0125 mg/kg | 1/5 | 1/5 | 4/5 | 1780 nM | 
CN(C(=O)CCCCCc1ccccc1)[C@H]1CC[C@@]2(O)[C@H]3Cc4ccc(O)c5c4[C@@]2(CCN3CC2CC2)[C@H]1O5 [Compound 36, 17-cyclopropylmethyl-3,14β-dihydroxy-4,5α-epoxy-6α-(N-methyl-6-phenylhexanamido)morphinan.cndot.hydrochloride] | 0.23 mg/kg | 38.8 ± 19.6 | 85.5 ± 34.9 | 68.0 ± 45.3 | significantly suppress defluxion of brain nerve cells caused by ischemia | clearly demonstrated action that protects nerve cells from cytotoxicity caused by glutamic acid | 6.64 |  |  |  |  |  |  |  |  |  |  |  | 
CN(C(=O)/C=C/c1ccoc1)[C@@H]1CC[C@@]2(O)[C@H]3Cc4ccc(O)c5c4[C@@]2(CCN3CC2CC2)[C@H]1O5 [Compound 61, 17-cyclopropylmethyl-3,14β-dihydroxy-4,5α-epoxy-6β-[N-methyl-trans-3-(3-furyl)acrylamido]morphinan.cndot.tartrate] | 0.0044 mg/kg |  |  |  |  | clearly demonstrated action that protects nerve cells from cytotoxicity caused by glutamic acid | 4.79 | 9.38 |  |  | 0.164 nM | 0.0032 mg/kg | 0.157 mg/kg | 0.0037 mg/kg |  |  |  |  | 
